IC50 data for 26 compounds are collected here from PubChem BioAssay AID624167 (Sanford-Burnham Center for Chemical Genomics, 2012).

pIC50: −log10 of the molar value. Active and inactive are the calls of the source.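 The calls were made as follows: active = mean IC50 for reducing PEG3 promoter reporter signal at or below a set limit, with IC50 above the limit in both counter screens; inactive = the rest, including counter screen hits.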

The subject of assay [1] is PEG-3. Put plainly: Peg3 promoter luciferase inhibitors, potency, dose response, cell-based, HeLa, CREF/GAPDH counter-screen panel (AID 624167). The note with it: HeLa PEG-Prom luciferase reporter, overnight, CREF/GAPDH counter-screens.
Assay [2] deals with PEG-3 (UniProt Q6IN02). Described as above. The settings on record: HeLa PEG-Prom luciferase reporter, overnight, CREF/GAPDH counter-screens, mean of runs. In general terms: A reporter such as luciferase makes a cellular process visible.
The mark [3] stands for this setting: run 1, dose range 1, individual replicate IC50 per panel.
[4] abbreviates: run 2, dose range 1, individual replicate IC50 per panel.

PEG-3 (UniProt Q6IN02), sequence (Q6IN02 whole entry, looked up): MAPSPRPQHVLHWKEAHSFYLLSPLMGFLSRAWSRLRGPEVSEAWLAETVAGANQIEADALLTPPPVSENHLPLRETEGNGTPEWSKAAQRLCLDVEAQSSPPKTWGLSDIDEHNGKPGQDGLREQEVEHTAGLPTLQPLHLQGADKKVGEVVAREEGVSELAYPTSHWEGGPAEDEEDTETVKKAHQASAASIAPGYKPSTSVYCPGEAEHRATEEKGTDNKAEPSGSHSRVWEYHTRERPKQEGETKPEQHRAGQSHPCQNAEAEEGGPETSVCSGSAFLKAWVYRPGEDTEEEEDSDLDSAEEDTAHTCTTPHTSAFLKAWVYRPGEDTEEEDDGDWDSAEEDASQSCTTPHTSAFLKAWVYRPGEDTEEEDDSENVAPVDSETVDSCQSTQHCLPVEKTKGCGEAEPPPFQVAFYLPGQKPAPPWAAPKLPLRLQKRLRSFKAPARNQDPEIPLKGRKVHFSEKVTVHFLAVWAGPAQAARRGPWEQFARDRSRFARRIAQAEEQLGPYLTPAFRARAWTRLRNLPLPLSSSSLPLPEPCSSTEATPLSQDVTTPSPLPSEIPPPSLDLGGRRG

As a reminder, the pIC50 is −log10 of the IC50, conventionally taken in molar units. A word on the IC50: it is the midpoint of a concentration-inhibition curve. `Oc1ccc(C[C@H]2CNCCN2CCc2cc(C(F)(F)F)cc(C(F)(F)F)c2)cc1`: the negative logarithm of the IC50 (pIC50) with PEG-3 [1] (setting [3]) was 4.57; in the assay on PEG-3 [1] (setting [4]), 4.70. Also, at PEG-3 [2], the IC50 entry was “inactive”.
With `COc1ccc(C2c3ccc4ccccc4c3Oc3ncn(CCCO)c(=N)c32)cc1` (stereo not drawn), the pIC50 is 4.64 with PEG-3 [1] (setting [3]), 4.77 in the assay on PEG-3 [1] (setting [4]) and 4.70 on PEG-3 [2].
In the case of `Cn1nnnc1Sc1ncnc2scc(-c3ccc4c(c3)OCO4)c12`, the negative-log IC50 (pIC50) is 4.46 in the assay on PEG-3 [1] (setting [3]) and 4.27 in the assay on PEG-3 [1] (setting [4]). Besides, on PEG-3 [2], the IC50 entry is “inactive”.
Regarding `COc1ccc(C2NCCc3c2[nH]c2ccccc32)cc1COc1ccc(F)cc1` (stereo not drawn), the pIC50 in the assay with PEG-3 [1] (setting [3]) is 4.77; in the assay with PEG-3 [1] (setting [4]), 5.11; at PEG-3 [2] it was 4.91.
On to `COC(=O)C1=C(C)N(Cc2ccccc2)C(=NCc2cccc(Cl)c2)N[C@H]1c1ccccc1`, for which the negative logarithm of the IC50 (pIC50) was 4.72 in the assay with PEG-3 [1] (setting [3]), 4.90 in the assay with PEG-3 [1] (setting [4]) and 4.80 on PEG-3 [2].
For `CC(C)(C)c1ccc(CN2N=Nc3ccccc3S2(=O)=O)cc1`, the pIC50 is 4.51 in the assay on PEG-3 [1] (setting [3]) and 4.40 in the assay with PEG-3 [1] (setting [4]). Further, at PEG-3 [2], the IC50 result was “inactive”.
In the case of `O=C(Nc1ccc(-c2cn3ccsc3n2)cc1)c1ccc(F)c(S(=O)(=O)N2CCOCC2)c1`, the negative logarithm of the IC50 (pIC50) in the assay on PEG-3 [1] (setting [3]) and with PEG-3 [1] (setting [4]) was under 4.00 each time. Further, the IC50 on PEG-3 [2] was > 100 µM (inactive).
On to `CN1CCN(c2ccc(NC(=O)N3CCc4ccccc43)cc2)CC1`, for which the negative logarithm of the IC50 (pIC50) in the assay with PEG-3 [1] (setting [3]) is 4.82; in the assay on PEG-3 [1] (setting [4]), 4.41. Also, the IC50 entry on PEG-3 [2] is “inactive”.
For the compound `COc1ccccc1CNC(=O)c1c(N)n(CCCN2CCOCC2)c2nc3ccccc3nc12`, the pIC50 in the assay with PEG-3 [1] (setting [3]) is 4.74; with PEG-3 [1] (setting [4]), 5.01; at PEG-3 [2], 4.85.
Regarding `CC1=CC(O)C(O)C2(C)C1CC1OC(=O)C(O)C3C(C)C(O)C4(O)OCC13C42` (stereo not drawn), the negative-log IC50 (pIC50) with PEG-3 [1] (setting [3]) is 4.35; in the assay on PEG-3 [1] (setting [4]) it was 4.07. Also, the IC50 result on PEG-3 [2] was “inactive”.
In the same order, the values of `O=C(CN1CCCC1)Nc1ccc(-c2nc3cc(NC(=O)CN4CCCC4)ccc3o2)cc1` are under 4.00, under 4.00 and > 100 µM (inactive).
With `COc1ccc(CNCCc2c(C)[nH]c3ccc(OC(F)(F)F)cc23)c(OC)c1`, the values for the pIC50 in the assay on PEG-3 [1] (setting [3]), with PEG-3 [1] (setting [4]) and at PEG-3 [2] were 4.87, 4.88 and 4.87, respectively.
As for `CCN(c1ccccc1)S(=O)(=O)c1ccc(C(=O)N(CCCN(C)C)c2nc3cc4c(cc3s2)OCO4)cc1`, the pIC50 in the assay with PEG-3 [1] (setting [3]) was 4.63; in the assay with PEG-3 [1] (setting [4]), 4.71. Moreover, the IC50 result on PEG-3 [2] was “inactive”.
In the same order, the values of `O=c1c2ccccc2oc2cc(C#CC3(O)CCCCC3)ccc12` are 4.56, under 4.00 and “inactive”.
Regarding `CCCCN(C)CCNC(=O)c1cc(-c2cccnc2)nc2ccc(S(=O)(=O)N3CCC(C)CC3)cc12`, the pIC50 with PEG-3 [1] (setting [3]) is 4.99; in the assay with PEG-3 [1] (setting [4]) it was 4.81; on PEG-3 [2], 4.89.
With `Cc1cc(Br)ccc1NC(=O)CN1C(=O)C2C3CC(c4ccccc4)C(C3)C2C1=O` (stereo not drawn), the pIC50 with PEG-3 [1] (setting [3]) is 4.62; in the assay on PEG-3 [1] (setting [4]), 4.38. Also, the IC50 entry at PEG-3 [2] is “inactive”.
On to `CCN(CC)CCn1c2ccccc2c2cnc(N)c(C#N)c21`, for which the negative logarithm of the IC50 (pIC50) with PEG-3 [1] (setting [3]) is 4.95; with PEG-3 [1] (setting [4]), 4.89; at PEG-3 [2], 4.92.
In the same order, the values of `CC(=O)c1cccc(-c2csc3ncnc(Sc4nnnn4C)c23)c1` are 4.79, 4.82 and 4.80.
With `CCCN1CCc2c(sc(NC(=O)c3ccc(S(=O)(=O)N4CCN(C(=O)OCC)CC4)cc3)c2C(N)=O)C1`, the pIC50 was 4.66 in the assay on PEG-3 [1] (setting [3]) and 4.67 in the assay with PEG-3 [1] (setting [4]). In addition, the IC50 entry at PEG-3 [2] is “inactive”.
Take `CCN1C/C(=C/c2ccc(N3CCOCC3)cc2)C(=O)/C(=C/c2ccc(N3CCOCC3)cc2)C1`: the negative logarithm of the IC50 (pIC50) is 4.80 in the assay on PEG-3 [1] (setting [3]), 4.89 in the assay on PEG-3 [1] (setting [4]) and 4.84 at PEG-3 [2].
On to `COc1ccc(CN(C)C(=O)C(Cc2ccccc2)NC(=O)c2ccccc2)cc1F` (stereo not drawn), for which the negative logarithm of the IC50 (pIC50) with PEG-3 [1] (setting [3]) is 4.22; in the assay with PEG-3 [1] (setting [4]), 4.19. Besides, the IC50 result on PEG-3 [2] was “inactive”.
For the compound `c1ccc(-c2cc(-c3ccccc3)[n+](-c3ccccc3)c(-c3ccccc3)c2)cc1`, the results for the pIC50 with PEG-3 [1] (setting [3]), in the assay on PEG-3 [1] (setting [4]) and on PEG-3 [2] were 4.97, 4.86 and 4.91, respectively.
For `COc1cccc(NC(=O)CN(C)C(=O)c2cc(-c3ccc(F)cc3)nc3ccccc23)c1`, the figures for the negative logarithm of the IC50 (pIC50) in the assay with PEG-3 [1] (setting [3]) and with PEG-3 [1] (setting [4]) were 4.59 and 4.35, respectively. For the same compound, the IC50 result at PEG-3 [2] is “inactive”.
Consider `Cc1cc(C)c2sc(N(CCCN(C)C)C(=O)c3ccc(S(=O)(=O)N(C)C4CCCCC4)cc3)nc2c1`, for which the pIC50 is 4.72 with PEG-3 [1] (setting [3]), 4.89 in the assay on PEG-3 [1] (setting [4]) and 4.80 at PEG-3 [2].
Consider `O=[N+]([O-])c1cc(Cl)cc(/C=N\Nc2ccccn2)c1O`, for which the pIC50 in the assay with PEG-3 [1] (setting [3]) is 5.86; in the assay on PEG-3 [1] (setting [4]) it was under 4.00. Besides, at PEG-3 [2], the IC50 entry was “inactive”.
For `Cc1nc(N2CCN(c3ccccc3O)CC2)c2c(-c3ccccc3)csc2n1`, in that order: 4.54, 4.61 and “inactive”.
